According to patent US20220054643A1, “SAPONIN CONJUGATED TO EPITOPE-BINDING PROTEINS” (priority 2018, published 2022):

Legend:
[1] = system: HER14 cells; assay: viability assay (MTT) with HER14 cells; type: cell-based; details: 0.1 nM dianthin-EGF in the presence of SA1641
Procedure: To test the efficacy of the invention, we conducted a viability assay with HER14 cells. These cells are fibroblasts stably transfected with the human epidermal growth factor receptor and therefore target cells for the targeted toxin dianthin-EGF. HER14 cells (2,000 cells/100 μL/well) were seeded into wells of 96-well-cell culture plates and incubated for 24 h in DMEM medium supplemented with 10% fetal calf serum and 1% penicillin/streptomycin at 37° C., 5% CO2 and 98% humidity. The different test substances (see results and FIG. 59) were then added in triplicates in a volume of 25 μL and supplemented with further 25 μL of medium. After an incubation of 72 h, 30 μL 3-(4,5-dimethylthiazol-2-yl)-2,5-diphenyltetrazolium bromide (0.5 mg/mL in water) was added per well and incubated for 2 h. Thereafter, the medium was carefully removed and replaced by an aqueous solution containing 10% (v/v) isopropanol, 5% (w/v) sodium dodecyl sulfate and 400 mM HCl, and incubated for 5 min. Solubilized formazan was photometrically quantitated at […] in a microplate reader (Spectra MAX 340 PC, Molecular Devices, Sunnyvale, Calif., USA). Untreated cells were normalized to 1 and all samples referred to the untreated control. Significance was determined by unpaired two-sample t-tests.

[2] = system: A2058 cells; assay: cell viability assay (MTS); type: cell-based, human; details: without EGFdianthin
Procedure: (§1) After treatment the cells were incubated for 72 hr at 37° C. before the cell viability was determined by a MTS-assay, performed according to the manufacturer's instruction (CellTiter 96® AQueous One Solution Cell Proliferation Assay, Promega). Briefly, the MTS solution was diluted 20× in DMEM without phenol red (PAN-Biotech GmbH) supplemented with 10% FBS (PAN-Biotech GmbH). The cells were washed once with 200 μL PBS per well, after which 100 μL diluted MTS solution was added per well.
(§2) The plate was incubated for approximately 20-30 minutes at 37° C. Subsequently, the optical density at 492 nm was measured on a Thermo Scientific Multiskan FC plate reader (Thermo Scientific). For quantification the background signal of ‘medium only’ wells was subtracted from all other wells, before the ratio of untreated/treated cells was calculated, by dividing the background corrected signal of untreated wells over the background corrected signal of the treated wells.

[3] = pH dependent hydrolysis of the hydrazone bond (MALDI-TOF-MS); type: physicochemical; details: HCl solution at pH 3; MALDI-TOF-MS at two points in time
[4] = system: HeLa cells; assay: cell viability assay (MTS); type: cell-based, human; details: for concentration above which toxicity is seen as single compound: without EGFdianthin
Procedure: as §1, §2

[5] = system: A431 cells; type: cell-based, human; details: without EGFdianthin
Procedure: as §1, §2

[6] = system: SK-BR-3, JIMT-1, MDA-MB-468, A431, CaSki, HeLa, A2058; assay: control treatments, relative cell viability on various cancer cell lines; type: cell-based, human; details: wide range of concentrations, up to 100.000 pM
Procedure: as §1, §2

For C[C@@H]1O[C@@H](O[C@H]2[C@H](OC(=O)[C@]34CCC(C)(C)C[C@H]3C3=CC[C@@H]5[C@@]6(C)CC[C@H](O[C@H]7O[C@H](C(=O)O)[C@@H](O)[C@H](O[C@@H]8OC[C@@H](O)[C@H](O)[C@H]8O)[C@H]7O[C@@H]7O[C@H](CO)[C@H](O)[C@H](O)[C@H]7O)[C@@](C)(C=O)[C@@H]6CC[C@@]5(C)[C@]3(C)CC4)O[C@H](C)[C@H](O[C@@H]3O[C@H](C)[C@@H](O)[C@H](O)[C@H]3O)[C@@H]2O)[C@H](O)[C@H](O)[C@H]1O[C@@H]1OC[C@@H](O)[C@H](O[C@@H]2OC[C@@H](O)[C@H](O)[C@H]2O)[C@H]1O [SA1641], which cell viability [1] is on record?
Its cell viability is “death of all cells”.

Which “concentration above which toxicity is seen as single compound” value [2] does the source give for CC(=O)OC1C(C)OC(OC2C(C)OC(OC(=O)[C@]34CCC(C)(C)CC3C3=CCC5[C@@]6(C)CC[C@H](OC7OC(C(=O)O)C(O)C(OC8OCC(O)C(O)C8O)C7OC7OC(CO)C(O)C(O)C7O)[C@@](C)(/C=N/NC(=O)CCCCCN7C(=O)C=CC7=O)C6CC[C@@]5(C)[C@]3(C)C[C@H]4O)C(OC3OC(C)C(OC4OCC(O)C(OC5OC(CO)C(O)C(O)C5O)C4O)C(O)C3O)C2O)C(O)C1OC1OCC(O)C(O)C1O (stereo partly shown) [SO1861-EMCH] here?
The value was over 25.000 nM.

And the “hydrolysis of the hydrazone bond” value [3]?
Its value is “gets cleaved”.

And the “concentration above which toxicity is seen as single compound” value [4]?
Its value is over 25.000 nM.

What about the “concentration above which toxicity is seen as single compound” value [5] of the same molecule?
Its value is over 25.000 nM.

What does the source list for CC(=O)OC1C(C)OC(OC2C(C)OC(OC(=O)[C@]34CCC(C)(C)CC3C3=CCC5[C@@]6(C)CC[C@H](OC7OC(C(=O)O)C(O)C(OC8OCC(O)C(O)C8O)C7OC7OC(CO)C(O)C(O)C7O)[C@@](C)(C=O)C6CC[C@@]5(C)[C@]3(C)C[C@H]4O)C(OC3OC(C)C(OC4OCC(O)C(OC5OC(CO)C(O)C(O)C5O)C4O)C(O)C3O)C2O)C(O)C1OC1OCC(O)C(O)C1O (stereo partly shown) [SO1861]?
concentration above which toxicity is seen as single compound [2]: strong cell viability reduction; concentration above which toxicity is seen as single compound [4]: strong cell viability reduction; concentration above which toxicity is seen as single compound [5]: strong cell viability reduction

Which “effect on SO1861-mediated endosomal escape of dianthin-EGF and cell killing” value ([4]; SO1861 + dianthin-EGF + 500 nM chloroquine / 500 nM PAMAM (native, thiolated, PEGylated) / 667 nM dendron) does the source give for CCN(CC)CCCC(C)Nc1ccnc2cc(Cl)ccc12 (stereo not shown) [chloroquine, reference compound] here?
Its value is “inhibit the SO1861-mediated endosomal escape”.

Which “influence on relative cell viability” value [6] does the source give for saporin here?
Its value is “do not or hardly have any influence on cell viability”.
